Reference: paper PMC2802337 (Prostaglandins, leukotrienes, and essential fatty acids, 2009)

Target: T1, 15-prostaglandin dehydrogenase/eicosanoid oxidoreductase (EOR) (Homo sapiens, UniProt P15428)
T1 sequence (P15428 1-266): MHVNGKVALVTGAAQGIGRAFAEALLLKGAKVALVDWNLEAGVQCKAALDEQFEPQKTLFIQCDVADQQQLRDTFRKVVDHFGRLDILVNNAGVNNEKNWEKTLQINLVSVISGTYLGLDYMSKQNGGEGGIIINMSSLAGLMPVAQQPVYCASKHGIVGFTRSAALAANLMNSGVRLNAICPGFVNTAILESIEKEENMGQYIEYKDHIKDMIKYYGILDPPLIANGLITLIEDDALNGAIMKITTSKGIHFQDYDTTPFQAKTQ
Assay: spectrophotometric NADH formation at […] nm, initial rate of conversion
Format: biochemical

spectrophotometric NADH formation at 340 nm, initial rate of conversion: 3.1 µM/min
Compound: CCCCC[C@H](O)/C=C/C=C\C=C\C=C\[C@@H](O)[C@@H](O)CCCC(=O)O [LXA4]
